Here are results for 31 compounds from US12612384B2, “Heterocyclic CYP4A inhibitor compounds and compositions thereof” (MBD CO., LTD., priority 2021, dated 2026).

Structures are written as SMILES.

One assay concerns the target T1, CYP4A (Homo sapiens, UniProt Q02928).
T1 construct: purchased; host or cells: bacterial membranes ('bactosome')
T1 sequence (Q02928 5-519): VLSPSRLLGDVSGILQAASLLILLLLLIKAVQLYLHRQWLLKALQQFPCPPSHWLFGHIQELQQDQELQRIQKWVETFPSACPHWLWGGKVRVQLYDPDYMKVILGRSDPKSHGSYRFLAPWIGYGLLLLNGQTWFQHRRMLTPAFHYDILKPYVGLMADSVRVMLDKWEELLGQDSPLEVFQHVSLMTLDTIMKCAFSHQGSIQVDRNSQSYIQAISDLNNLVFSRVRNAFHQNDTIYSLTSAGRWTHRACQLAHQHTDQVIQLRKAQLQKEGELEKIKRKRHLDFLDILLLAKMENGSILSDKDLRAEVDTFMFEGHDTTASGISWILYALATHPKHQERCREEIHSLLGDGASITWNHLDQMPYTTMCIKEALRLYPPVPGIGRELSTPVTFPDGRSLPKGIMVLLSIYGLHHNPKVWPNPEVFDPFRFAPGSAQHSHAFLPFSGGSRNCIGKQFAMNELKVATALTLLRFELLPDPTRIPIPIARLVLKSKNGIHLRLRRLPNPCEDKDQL
Kind of assay: CYP4A enzyme assay (luminescence, Luciferin-ME). Format: biochemical. Conditions: Compound concentration 5 μM; 50%-70%; read-out: % Inhibition 50%-70%. Summed up: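 Compounds (5 μM) were preincubated 15 min at room temperature with CYP4A bactosomes in 100 mM KPO4, 0.1% BSA, 1 mM DTT. Reaction ran 30 min at room temperature after adding 5 mM Luciferin-ME and NADPH regeneration system. Luminescence after 15 min with detection reagent; inhibition judged by comparing well signals.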
Regarding `O=C(C1CN(S(=O)(=O)c2ccc(Br)cc2)C1)N1CCN(c2ccnc3cc(F)ccc23)CC1` [Example 68, (1-((4-bromophenyl)sulfonyl)azetidin-3-yl)(4-(7-fluoroquinolin-4-yl)piperazin-1-yl)methanone], the inhibition at 5 µM was in the range of 50 to 70%. Turning to `Cc1ccc(S(=O)(=O)N2CCCC(C(=O)N3CCN(c4ncnc5ccccc45)CC3)C2)cc1` (stereo not shown) [Example 75, (4-(quinazolin-4-yl)piperazin-1-yl)(1-tosylpiperidin-3-yl)methanone], the inhibition at 5 µM was 50 to 70%.

As to `CC(=O)Nc1ccc(S(=O)(=O)N2CCCC(C(=O)N3CCN(c4nc(C)nc5ccccc45)CC3)C2)cc1` (stereo not shown) [Example 79, N-(4-(3-(1-(2-methylquinazolin-4-yl)piperazine-4-carbonyl)piperidin-1-ylsulfonyl)phenyl)acetamide], the inhibition at 5 µM lay in the range of 50 to 70%. Still for that read-out and setting: the result for `Cc1nc(N2CCN(C(=O)C3CCCN(S(=O)(=O)c4ccc(F)cc4)C3)CC2)c2ccccc2n1` (stereo not shown) [Example 81, (1-(4-fluorophenylsulfonyl)piperidin-3-yl)(4-(2-methylquinazolin-4-yl)piperazin-1-yl)methanone] reads 50 to 70%.

For the compound `Cc1nc(N2CCN(C(=O)C3CCCN(S(=O)(=O)c4ccc(N(C)C)cc4)C3)CC2)c2ccccc2n1` (stereo not shown) [Example 82, (1-(4-(dimethylamino)phenylsulfonyl)piperidin-3-yl)(4-(2-methylquinazolin-4-yl)piperazin-1-yl)methanone], the inhibition at 5 µM was 50 to 70%. Same read-out and setting: for `O=C(C1CCCN(C(=O)C2CCCCC2)C1)N1CCN(c2ccnc3cc(Cl)ccc23)CC1` (stereo not shown) [Example 86, (4-(7-chloroquinolin-4-yl)piperazin-1-yl)(1-(cyclohexylcarbonyl)piperidin-3-yl)methanone] the value was 50 to 70%; for `COc1ccc(C(=O)N2CCCC(C(=O)N3CCN(c4ccnc5cc(Cl)ccc45)CC3)C2)cc1` (stereo not shown) [Example 88, (4-(7-chloroquinolin-4-yl)piperazin-1-yl)(1-(4-methoxyphenylcarbonyl)piperidin-3-yl)methanone], 50 to 70%; for `COc1ccc2c(N3CCN(C(=O)C4CCCN(C(=O)c5ccccc5)C4)CC3)ccnc2c1` (stereo not shown) [Example 91, (1-benzoylpiperidin-3-yl)(4-(7-methoxyquinolin-4-yl)piperazin-1-yl)methanone], 50 to 70%. Same read-out and setting: the result for `COc1ccc2c(N3CCN(C(=O)C4CCCN(C(=O)C5CCCCC5)C4)CC3)ccnc2c1` (stereo not shown) [Example 92, (4-(7-methoxyquinolin-4-yl)piperazin-1-yl)(1-(cyclohexylcarbonyl)piperidin-3-yl)methanone] reads 50 to 70%. Regarding `COc1ccc(C(=O)N2CCCC(C(=O)N3CCN(c4ccnc5cc(OC)ccc45)CC3)C2)cc1` (stereo not shown) [Example 94, (4-(7-methoxyquinolin-4-yl)piperazin-1-yl)(1-(4-methoxyphenylcarbonyl)piperidin-3-yl)methanone], the inhibition at 5 µM lay in the range of 50 to 70%. Still for that read-out and setting: the result for `CC(=O)Nc1ccc(C(=O)N2CCCC(C(=O)N3CCN(c4cc(C(F)(F)F)nc5ccccc45)CC3)C2)cc1` (stereo not shown) [Example 95, N-(4-(3-(1-(2-(trifluoromethyl)quinolin-4-yl)piperazine-4-carbonyl)piperidine-1-carbonyl)phenyl)acetamide] reads 50 to 70%.

Still in this assay, the particulars now being: Compound concentration 5 μM; 70%-90%; read-out: % Inhibition 70%-90%.
For `Nc1cccc(S(=O)(=O)N2CC(C(=O)N3CCN(c4ccnc5cc(F)ccc45)CC3)C2)c1` [Example 72, (1-((3-aminophenyl)sulfonyl)azetidin-3-yl)(4-(7-fluoroquinolin-4-yl)piperazin-1-yl)methanone], the inhibition at 5 µM fell in the range of 70 to 90%.

As to `CC(=O)Nc1ccc(S(=O)(=O)N2CCCC(C(=O)N3CCN(c4ncnc5ccccc45)CC3)C2)cc1` (stereo not shown) [Example 74, N-(4-((3-(4-(quinazolin-4-yl)piperazine-1-carbonyl)piperidin-1-yl)sulfonyl)phenyl)acetamide], the inhibition at 5 µM lay within 70 to 90%. Consider `O=C(C1CCCN(S(=O)(=O)c2ccc(F)cc2)C1)N1CCN(c2ncnc3ccccc23)CC1` (stereo not shown) [Example 76, (1-((4-fluorophenyl)sulfonyl)piperidin-3-yl)(4-(quinazolin-4-yl)piperazin-1-yl)methanone], for which the inhibition at 5 µM was in the range of 70 to 90%. On the same count and under the same terms, the result for `CN(C)c1ccc(S(=O)(=O)N2CCCC(C(=O)N3CCN(c4ncnc5ccccc45)CC3)C2)cc1` (stereo not shown) [Example 77] reads 70 to 90%; that for `O=C(C1CCCN(S(=O)(=O)c2ccc(O)cc2)C1)N1CCN(c2ncnc3ccccc23)CC1` (stereo not shown) [Example 78, (1-((4-hydroxyphenyl)sulfonyl)piperidin-3-yl)(4-(quinazolin-4-yl)piperazin-1-yl)methanone], 70 to 90%; that for `O=C(c1ccc(F)cc1)N1CCCC(C(=O)N2CCN(c3ccnc4cc(Cl)ccc34)CC2)C1` (stereo not shown) [Example 84, (4-(7-chloroquinolin-4-yl)piperazin-1-yl)(1-(4-fluorophenylcarbonyl)piperidin-3-yl)methanone], 70 to 90%. Still for that read-out and setting: the result for `O=C(c1ccccc1)N1CCCC(C(=O)N2CCN(c3ccnc4cc(Cl)ccc34)CC2)C1` (stereo not shown) [Example 85, (4-(7-chloroquinolin-4-yl)piperazin-1-yl)(1-(phenylcarbonyl)piperidin-3-yl)methanone] reads 70 to 90%. In the case of `O=C(c1ccncc1)N1CCCC(C(=O)N2CCN(c3ccnc4cc(Cl)ccc34)CC2)C1` (stereo not shown) [Example 87, (4-(7-chloroquinolin-4-yl)piperazin-1-yl)(1-(pyridine-4-ylcarbonyl)piperidin-3-yl)methanone], the inhibition at 5 µM was 70 to 90%. Still for that read-out and setting: for `COc1ccc2c(N3CCN(C(=O)C4CCCN(C(=O)c5ccc(NC(C)=O)cc5)C4)CC3)ccnc2c1` (stereo not shown) [Example 89, N-(4-(3-(4-(7-methoxyquinolin-4-yl)piperazine-1-carbonyl)piperidine-1-carbonyl)phenyl)acetamide] the value was 70 to 90%; for `COc1ccc2c(N3CCN(C(=O)C4CCCN(C(=O)c5ccc(F)cc5)C4)CC3)ccnc2c1` (stereo not shown) [Example 90, (1-(4-fluorobenzoyl)piperidin-3-yl)(4-(7-methoxyquinolin-4-yl)piperazin-1-yl)methanone], 70 to 90%. Same read-out and setting: for `COc1ccc2c(N3CCN(C(=O)C4CCCN(C(=O)c5ccncc5)C4)CC3)ccnc2c1` (stereo not shown) [Example 93, (4-(7-methoxyquinolin-4-yl)piperazin-1-yl)(1-(pyridine-4-ylcarbonyl)piperidin-3-yl)methanone] the value was 70 to 90%.

Staying with this assay, now noted: Compound concentration 5 μM; Greater than 90%; read-out: % Inhibition Greater than 90%.
`CC(=O)Nc1ccc(S(=O)(=O)N2CC(C(=O)N3CCN(c4ccnc5cc(F)ccc45)CC3)C2)cc1` [Example 65, N-(4-((3-(4-(7-fluoroquinolin-4-yl)piperazine-1-carbonyl)azetidin-1-yl)sulfonyl)phenyl)acetamide]: the inhibition at 5 µM is above 90%.

Consider `O=C(C1CN(S(=O)(=O)c2ccc(O)cc2)C1)N1CCN(c2ccnc3cc(F)ccc23)CC1` [Example 66, (4-(7-fluoroquinolin-4-yl)piperazin-1-yl)(1-((4-hydroxyphenyl)sulfonyl)azetidin-3-yl)methanone], for which the inhibition at 5 µM is above 90%. Same read-out and setting: for `O=C(C1CN(S(=O)(=O)c2ccc([N+](=O)[O-])cc2)C1)N1CCN(c2ccnc3cc(F)ccc23)CC1` [Example 67, (4-(7-fluoroquinolin-4-yl)piperazin-1-yl)(1-((4-nitrophenyl)sulfonyl)azetidin-3-yl)methanone] the value was above 90%.

For `O=C(C1CN(S(=O)(=O)c2ccc(-c3ccncc3)cc2)C1)N1CCN(c2ccnc3cc(F)ccc23)CC1` [Example 69, (4-(7-fluoroquinolin-4-yl)piperazin-1-yl)(1-((4-(pyridin-4-yl)phenyl)sulfonyl)azetidin-3-yl)methanone], the inhibition at 5 µM was above 90%. In the case of `CC(=O)Nc1ccc(S(=O)(=O)N2CC(C(=O)N3CCN(c4ccnc5ccccc45)CC3)C2)cc1` [Example 70, N-(4-((3-(4-(quinolin-4-yl)piperazine-1-carbonyl)azetidin-1-yl)sulfonyl)phenyl)acetamide], the inhibition at 5 µM was above 90%.

As for `O=C(C1CN(S(=O)(=O)c2cccc([N+](=O)[O-])c2)C1)N1CCN(c2ccnc3cc(F)ccc23)CC1` [Example 71, (4-(7-fluoroquinolin-4-yl)piperazin-1-yl)(1-((3-nitrophenyl)sulfonyl)azetidin-3-yl)methanone], the inhibition at 5 µM was above 90%. With `CC(=O)Nc1cccc(S(=O)(=O)N2CC(C(=O)N3CCN(c4ccnc5cc(F)ccc45)CC3)C2)c1` [Example 73, N-(3-((3-(4-(7-fluoroquinolin-4-yl)piperazine-1-carbonyl)azetidin-1-yl)sulfonyl)phenyl)acetamide], the inhibition at 5 µM is above 90%.

For `CC(=O)Nc1ccc(C(=O)N2CCCC(C(=O)N3CCN(c4ccnc5cc(Cl)ccc45)CC3)C2)cc1` (stereo not shown) [Example 83, N-(4-(3-(1-(7-chloroquinolin-4-yl)piperazine-4-carbonyl)piperidine-1-carbonyl)phenyl)acetamide], the inhibition at 5 µM was above 90%.

The same assay, now with this note: Compound concentration 5 μM; Less than 50%; read-out: % Inhibition Less than 50%.
`Cc1ccc(S(=O)(=O)N2CCCC(C(=O)N3CCN(c4nc(C)nc5ccccc45)CC3)C2)cc1` (stereo not shown) [Example 80, (4-(2-methylquinazolin-4-yl)piperazin-1-yl)(1-tosylpiperidin-3-yl)methanone]: the inhibition at 5 µM was below 50%.
